Source: the NIST ThermoML archive (doi:10.1021/je800251v)

Conditions: Liquid

CCCC(=O)OCC [ethyl butanoate]
mass density [kg/m3]
Conditions | 298.15 K | 303.15 K | 308.15 K | 313.15 K | 318.15 K | 323.15 K | 328.15 K | 333.15 K
100 kPa | 873.3 | 868.1 | 862.6 | 857.3 | 851.9 | 846.7 | 841.4 | 835.8
1000 kPa | 874.1 | 868.9 | 863.5 | 858.2 | 852.8 | 847.4 | 842 | 837
2000 kPa | 875 | 869.8 | 864.4 | 859.1 | 853.8 | 848.4 | 843.3 | 838.1
3000 kPa | 875.9 | 870.7 | 865.3 | 860.1 | 854.8 | 849.5 | 844.5 | 839.2
3100 kPa | 876 | 870.7 | 865.4 | 860.2 | 854.9 | 849.6 | 844.6 | 839.3
5000 kPa | 877.5 | 872.4 | 867.1 | 861.9 | 856.7 | 851.7 | 846.6 | 841.2
10000 kPa | 881.5 | 876.5 | 871.4 | 866.3 | 861.3 | 856.7 | 851.5 | 846.3
15000 kPa | 885.3 | 880.4 | 875.5 | 870.5 | 865.8 | 861.1 | 856.2 | 851.1
20000 kPa | 889 | 884.1 | 879.4 | 874.5 | 869.9 | 865.4 | 860.5 | 855.6
25000 kPa | 892.5 | 887.8 | 883.1 | 878.4 | 874.1 | 869.4 | 864.8 | 860.1
30000 kPa | 896.9 | 892.3 | 887.8 | 883.2 | 879 | 874.5 | 870 | 865.4
35000 kPa | 901.4 | 896.9 | 892.5 | 888.1 | 884.1 | 879.7 | 875.3 | 870.8
